Measured values from patent publication US20240132513A1, “BENZAZEPINE DERIVATIVES, COMPOSITIONS, AND METHODS FOR TREATING COGNITIVE IMPAIRMENT” (AGENEBIO, INC., priority 2022, published 2024).
Where two headings read alike, the source gives them in different places.

What was measured:
α5β3γ2 GABAA R = α5β3γ2 GABAA R (Homo sapiens, UniProt P18507+P31644); assay: Binding activity on GABAA R: inhibition of [3H]Ro15-1788 binding, α5 containing receptor
Procedure, shortened: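 Displacement of [3H]Ro15-1788 (flumazenil) measured at 4 °C over 1 h using 0.2 mg/ml membrane protein from Ltk cells carrying α5β3γ2 GABAA receptors, expression induced with 0.5 μM dexamethasone for 1 day; buffer pH 7.4 KH2PO4/EDTA/KCl. 10 μM diazepam defined nonspecific binding; filter-trapped radioactivity counted, in triplicate.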

GABAA R (α5β2γ2) = biological target: T1, GABAA R (α5β2γ2) (Homo sapiens, UniProt P18507+P31644); assay: Positive allosteric modulator activity: potentiation of EC20 GABA current in oocytes; assay type: cell-based
T1 construct: expressed in transfected cells
T1 sequence (P31644 32-462): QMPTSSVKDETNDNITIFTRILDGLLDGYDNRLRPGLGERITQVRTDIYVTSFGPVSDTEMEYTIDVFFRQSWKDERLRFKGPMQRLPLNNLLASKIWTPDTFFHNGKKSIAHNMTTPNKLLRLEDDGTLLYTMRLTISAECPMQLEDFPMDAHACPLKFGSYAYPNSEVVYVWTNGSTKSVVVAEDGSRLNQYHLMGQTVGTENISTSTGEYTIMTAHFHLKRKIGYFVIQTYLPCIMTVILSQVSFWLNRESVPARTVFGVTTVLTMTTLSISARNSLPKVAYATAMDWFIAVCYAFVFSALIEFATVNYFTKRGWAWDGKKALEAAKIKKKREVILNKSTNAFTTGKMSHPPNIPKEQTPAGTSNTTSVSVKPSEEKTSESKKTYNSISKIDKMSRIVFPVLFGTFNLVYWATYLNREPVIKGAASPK
T1 sequence (P47870 25-512 partner limits assumed): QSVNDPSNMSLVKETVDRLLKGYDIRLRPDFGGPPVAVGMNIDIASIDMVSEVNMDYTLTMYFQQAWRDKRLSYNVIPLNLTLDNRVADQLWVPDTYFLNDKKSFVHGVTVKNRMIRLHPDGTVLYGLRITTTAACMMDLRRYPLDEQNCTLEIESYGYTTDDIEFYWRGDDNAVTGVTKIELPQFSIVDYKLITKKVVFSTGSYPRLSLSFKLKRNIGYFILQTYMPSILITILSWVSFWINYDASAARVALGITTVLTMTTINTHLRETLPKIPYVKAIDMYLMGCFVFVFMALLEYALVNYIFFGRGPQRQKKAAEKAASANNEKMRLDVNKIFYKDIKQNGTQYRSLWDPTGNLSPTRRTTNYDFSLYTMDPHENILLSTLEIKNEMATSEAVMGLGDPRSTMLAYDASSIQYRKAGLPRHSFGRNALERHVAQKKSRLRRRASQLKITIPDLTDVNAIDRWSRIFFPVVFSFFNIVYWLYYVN
T1 sequence (P18507 40-475): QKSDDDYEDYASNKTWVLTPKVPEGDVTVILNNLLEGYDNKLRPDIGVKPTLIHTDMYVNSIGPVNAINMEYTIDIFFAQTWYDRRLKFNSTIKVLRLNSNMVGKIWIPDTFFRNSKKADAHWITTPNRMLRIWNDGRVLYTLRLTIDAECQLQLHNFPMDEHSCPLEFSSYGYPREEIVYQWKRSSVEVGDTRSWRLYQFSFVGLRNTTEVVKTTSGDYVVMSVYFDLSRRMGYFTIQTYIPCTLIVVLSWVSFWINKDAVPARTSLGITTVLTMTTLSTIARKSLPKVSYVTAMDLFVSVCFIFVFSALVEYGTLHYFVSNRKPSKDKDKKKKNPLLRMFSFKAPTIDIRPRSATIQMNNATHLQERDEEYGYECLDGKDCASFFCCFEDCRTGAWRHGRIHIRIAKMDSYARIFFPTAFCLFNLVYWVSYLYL
Method: On day 1, 1 ng/32 nL of GABAA α5β2γ2 cDNA was injected into one oocyte. Test starts on day 2. The cDNA injected to the oocytes was a mix of alpha, beta and gamma, their ratio is 1:1:10 (by weight) and the total weight of the mixed 3 subunits to be injected in one oocyte was 1 ng in 32 nl volume. The injected oocytes can also be tested on day 3. In such case, the cDNA amount injected to the oocytes should be reduced by 20%.
Compounds of the present disclosure were tested using the following procedures.
8 oocytes were placed in 8 chambers of OpusXpress and superfused with Modified Barth's Saline (MBS) at 3 mL/min. Glass electrodes back-filled with 3M KCl (0.5-3 megaohms) were used. Membrane potential of oocytes was voltage-clamped at −60 mV. • 2).
Control Test (Diazepam or Methyl 3,5-Diphenylpyridazine-4-Carboxylate) • 1). New oocytes was used to run new test. • 2). […] Oocytes were washed with MBS for 5-10 min. • 4). […] Itest was divided by IGABA to obtain potentiation (%).
Test Compounds at Multiple Doses • 1). Repeat the above steps 1), 2) and 3) in the control test. • 2). […] Divide Itest by IGABA to obtain potentiation (%). • 3). Discard all tested oocytes, new oocytes were used and the above steps 1) and 2) were repeated to test second concentration of the same compound. Each oocyte was used for only one concentration test for a single test compound. The steps were repeated for other test compounds.

[1] = read-out: GABA α5 Functional Data: potentiation, @ 100 nM, EC20 GABA, ranges of the column heads
[2] = ranges of the column heads, [3H]Ro15-1788, Ltk cell membranes
[3] = read-out: GABA α5 Functional Data: potentiation

α5β3γ2 GABAA R, sequence (P31644 32-462): as the sequence (P31644 32-462) above
α5β3γ2 GABAA R, sequence (P28472 26-473 partner): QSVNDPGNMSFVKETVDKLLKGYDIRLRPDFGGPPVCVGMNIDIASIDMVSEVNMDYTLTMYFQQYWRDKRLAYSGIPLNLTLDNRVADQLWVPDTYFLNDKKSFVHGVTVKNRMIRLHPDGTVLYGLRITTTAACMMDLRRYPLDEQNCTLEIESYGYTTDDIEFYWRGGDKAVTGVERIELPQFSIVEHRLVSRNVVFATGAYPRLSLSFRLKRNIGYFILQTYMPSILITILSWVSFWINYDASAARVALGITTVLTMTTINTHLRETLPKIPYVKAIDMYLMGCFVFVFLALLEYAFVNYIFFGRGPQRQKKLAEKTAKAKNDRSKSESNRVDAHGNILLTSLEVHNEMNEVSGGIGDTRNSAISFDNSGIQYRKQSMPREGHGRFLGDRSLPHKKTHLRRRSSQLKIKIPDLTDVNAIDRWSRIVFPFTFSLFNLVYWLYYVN
α5β3γ2 GABAA R, sequence (P18507 40-475): as the sequence (P18507 40-475) above

Structure (SMILES)	Ki (α5β3γ2 GABAA R) [nM]	activation at 0.1 µM (GABAA R (α5β2γ2); [1]) [%]	Ki (α5β3γ2 GABAA R; [2]) [nM]	activation at 0.1 µM (GABAA R (α5β2γ2); [3]) [%]
COCCn1cc2c(n1)-c1cc(OC)ccc1-n1cnc(-c3noc(COCC(F)(F)F)n3)c1C2 [Compound 313]	< 100	5 to 20	–	–
CCn1cc2c(n1)-c1cc(Cl)ccc1-n1cnc(-c3noc(COC4CCCC4)n3)c1C2 [Compound 194]	< 100	20 to 50	–	–
COc1ccc2c(c1)-c1nn(C)cc1Cc1c(-c3nc(C4CCOC4)no3)ncn1-2 (centres unmarked) [Compound 126]	< 100	20 to 50	–	–
COCCn1cc2c(n1)-c1cc(OC)ccc1-n1cnc(-c3noc(C(C)C)n3)c1C2 [Compound 110]	< 100	20 to 50	–	–
COCc1noc(-c2ncn3c2Cc2cn(C4CCOC4)nc2-c2cc(Cl)ccc2-3)n1 (centres unmarked) [Compound 275]	< 100	5 to 20	–	–
COc1ccc2c(c1)-c1[nH]ncc1Cc1c(C#Cc3ccnn3C)ncn1-2 [Compound 39]	–	–	< 100	20 to 50
COc1ccc2c(c1)-c1[nH]ncc1Cc1c(C#CC(C)(C)C)ncn1-2 [Compound 73]	< 100	5 to 20	–	–
COCc1nc(-c2ncn3c2Cc2cn(CC4CCCO4)nc2-c2cc(OC)ccc2-3)no1 (centres unmarked) [Compound 293]	< 100	20 to 50	–	–
Cc1noc(-c2ncn3c2Cc2cn(C)nc2-c2cc(Cl)ccc2-3)n1 [Compound 121]	< 100	20 to 50	–	–
Clc1ccc2c(c1)-c1[nH]ncc1Cc1c(-c3nc(C4CC4)no3)ncn1-2 [Compound 105]	< 100	20 to 50	–	–
CC(C)c1nc(-c2ncn3c2Cc2cn(C)nc2-c2cc(Cl)ccc2-3)no1 [Compound 141]	< 100	20 to 50	–	–
CCOCc1nc(-c2ncn3c2Cc2cn(C)nc2-c2cc(Cl)ccc2-3)no1 [Compound 243]	–	–	< 100	5 to 20
COc1ccc2c(c1)-c1nn(C)cc1Cc1c(-c3noc(C4COC4)n3)ncn1-2 [Compound 202]	< 100	20 to 50	–	–
Cn1cc2c(n1)-c1cc(Cl)ccc1-n1cnc(-c3nnc(C4CCOC4)o3)c1C2 (centres unmarked) [Compound 212]	–	–	< 100	5 to 20
Cn1cc2c(n1)-c1cc(Cl)ccc1-n1cnc(-c3cnn(CC4CCCO4)c3)c1C2 (centres unmarked) [Compound 222]	< 100	5 to 20	–	–
Clc1ccc2c(c1)-c1nn(CC3CCCO3)cc1Cc1c(-c3cnn(Cc4ccccc4)c3)ncn1-2 (centres unmarked) [Compound 230]	< 100	5 to 20	–	–
COc1ccc2c(c1)-c1nn(CC3CC3)cc1Cc1c(-c3nc(C4CC4)no3)ncn1-2 [Compound 171]	< 100	5 to 20	–	–
COc1ccc2c(c1)-c1nn(Cc3ccccc3)cc1Cc1c(-c3cnn(Cc4ccccc4)c3)ncn1-2 [Compound 76]	–	–	< 100	20 to 50
COc1ccc2c(c1)-c1nn(C)cc1Cc1c(-c3noc(C4COCCO4)n3)ncn1-2 (centres unmarked) [Compound 207]	< 100	20 to 50	–	–
Cn1cc2c(n1)-c1cc(Cl)ccc1-n1cnc(-c3cnn(Cc4ccccn4)c3)c1C2 [Compound 190]	< 100	20 to 50	–	–
Clc1ccc2c(c1)-c1nn(CC3CCCO3)cc1Cc1c(-c3noc(C4CCOC4)n3)ncn1-2 (centres unmarked) [Compound 308]	< 100	20 to 50	–	–
CCn1cc2c(n1)-c1cc(Cl)ccc1-n1cnc(C3=N[C@@H](c4ccccc4)CO3)c1C2 [Compound 179]	< 100	20 to 50	–	–
Clc1ccc2c(c1)-c1[nH]ncc1Cc1c(-c3nc(C4CCOC4)no3)ncn1-2 (centres unmarked) [Compound 108]	< 100	20 to 50	–	–
CC(C)c1noc(-c2ncn3c2Cc2cn(Cc4ccccn4)nc2-c2cc(Cl)ccc2-3)n1 [Compound 99]	< 100	–	–	20 to 50
COc1ccc2c(c1)-c1nn(C)cc1Cc1c(-c3noc([C@H]4CCCO4)n3)ncn1-2 [Compound 258]	< 100	5 to 20	–	–
Cn1cc2c(n1)-c1cc(Cl)ccc1-n1cnc(-c3nc(CN4CCOCC4)co3)c1C2 [Compound 276]	< 100	20 to 50	–	–
CC(C)c1noc(-c2ncn3c2Cc2cn(CCN(C)C)nc2-c2cc(Cl)ccc2-3)n1 [Compound 112]	< 100	5 to 20	–	–
CC(C)c1noc(-c2ncn3c2Cc2cn(CC4CCOCC4)nc2-c2cc(Cl)ccc2-3)n1 [Compound 251]	–	–	< 100	5 to 20

Structure (SMILES)	Ki (α5β3γ2 GABAA R) [nM]	activation at 0.1 µM (GABAA R (α5β2γ2); [1]) [%]	Ki (α5β3γ2 GABAA R; [2]) [nM]	activation at 0.1 µM (GABAA R (α5β2γ2); [3]) [%]
CCn1cc2c(n1)-c1cc(OC)ccc1-n1cnc(-c3noc(CN(C)C)n3)c1C2 [Compound 248]	< 100	20 to 50	–	–
CC(C)c1noc(-c2ncn3c2Cc2cn(Cc4ccncc4)nc2-c2cc(Cl)ccc2-3)n1 [Compound 97]	< 100	5 to 20	–	–
COc1ccc2c(c1)-c1nn(C)cc1Cc1c(-c3noc(C4(F)CC4)n3)ncn1-2 [Compound 205]	< 100	20 to 50	–	–
COc1ccc2c(c1)-c1[nH]ncc1Cc1c(-c3noc(COCC(F)(F)F)n3)ncn1-2 [Compound 174]	< 100	20 to 50	–	–
CCn1cc2c(n1)-c1cc(OC)ccc1-n1cnc(-c3noc(C(C)C)n3)c1C2 [Compound 156]	< 100	20 to 50	–	–
COc1ccc2c(c1)-c1nn(C)cc1Cc1c(-c3noc(C4CC4)n3)ncn1-2 [Compound 132]	–	–	< 100	20 to 50
Clc1ccc2c(c1)-c1nn(Cc3ccccn3)cc1Cc1c(-c3nc(C4CC4)no3)ncn1-2 [Compound 135]	< 100	5 to 20	–	–
COc1ccc2c(c1)-c1[nH]ncc1Cc1c(C3=N[C@H](c4ccccc4)CO3)ncn1-2 [Compound 14]	< 100	5 to 20	–	–
COc1ccc2c(c1)-c1nn(CC3COC3)cc1Cc1c(-c3noc(C(C)(C)OC)n3)ncn1-2 [Compound 312]	< 100	5 to 20	–	–
COCCn1cc2c(n1)-c1cc(Cl)ccc1-n1cnc(-c3nc(C(C)C)no3)c1C2 [Compound 111]	–	–	< 100	20 to 50
CCn1cc2c(n1)-c1cc(Cl)ccc1-n1cnc(-c3noc(C4CC4)n3)c1C2 [Compound 176]	–	–	< 100	5 to 20
COC(C)(C)c1nc(-c2ncn3c2Cc2cn(CC4CCCO4)nc2-c2cc(Cl)ccc2-3)no1 (centres unmarked) [Compound 306]	< 100	5 to 20	–	–
CCn1cc2c(n1)-c1cc(Cl)ccc1-n1cnc(-c3nc(CN4CCCC4)no3)c1C2 [Compound 266]	–	5 to 20	< 100	–
COc1ccc2c(c1)-c1[nH]ncc1Cc1c(-c3noc(C(F)(F)F)n3)ncn1-2 [Compound 87]	–	–	< 100	20 to 50
Clc1ccc2c(c1)-c1c(cnn1CC1CC1)Cc1c(-c3nc(C4CC4)no3)ncn1-2 [Compound 162]	< 100	5 to 20	–	–
CCn1cc2c(n1)-c1cc(Cl)ccc1-n1cnc(-c3noc(C4(OC)CC4)n3)c1C2 [Compound 198]	–	–	< 100	20 to 50
Clc1ccc2c(c1)-c1[nH]ncc1Cc1c(-c3cnco3)ncn1-2 [Compound 93]	–	–	< 100	5 to 20
COc1ccc2c(c1)-c1nn(C)cc1Cc1c(-c3noc(C(C)C)n3)ncn1-2 [Compound 109]	–	–	< 100	20 to 50
COc1ccc(C#Cc2ncn3c2Cc2cn[nH]c2-c2cc(Cl)ccc2-3)cn1 [Compound 52]	< 100	5 to 20	–	–
Clc1ccc2c(c1)-c1[nH]ncc1Cc1c(-c3nc(C4CCCCC4)no3)ncn1-2 [Compound 123]	< 100	5 to 20	–	–
COc1ccc2c(c1)-c1nn(CC3CCCO3)cc1Cc1c(-c3nc(C(F)(F)F)no3)ncn1-2 (centres unmarked) [Compound 264]	< 100	5 to 20	–	–
Clc1ccc2c(c1)-c1[nH]ncc1Cc1c(-c3ncco3)ncn1-2 [Compound 55]	< 100	5 to 20	–	–
COCCn1cc2c(n1)-c1cc(OC)ccc1-n1cnc(-c3nc(COC)no3)c1C2 [Compound 300]	< 100	20 to 50	–	–
COC(C)(C)c1noc(-c2ncn3c2Cc2cn(CC4CCCO4)nc2-c2cc(Cl)ccc2-3)n1 (centres unmarked) [Compound 280]	< 100	20 to 50	–	–
COc1ccc2c(c1)-c1nn(C)cc1Cc1c(-c3noc(C(C)(C)OC)n3)ncn1-2 [Compound 185]	< 100	20 to 50	–	–
COc1ccc2c(c1)-c1nn(C)cc1Cc1c(-c3nc(C4CC4)no3)ncn1-2 [Compound 120]	–	–	< 100	20 to 50
CCn1cc2c(n1)-c1cc(Cl)ccc1-n1cnc(-c3nc(C4CCOC4)no3)c1C2 (centres unmarked) [Compound 192]	–	–	< 100	20 to 50
